Test results as given in patent publication US20240238297A1, “USES AND METHODS FOR RECURRENT PRIMARY CNS NEOPLASMS” (CHIMERIX, INC., priority 2021, published 2024).
Counter-ions that a name gives are not always drawn.

What was measured:
[1] = tested on: diffuse midline glioma, H3 K27M-mutant; conditions: patients with DMG H3K27M; cited from earlier work
high grade gliomas = conditions: advanced cancer patients; cited from earlier work
endometrial cancer = conditions: advanced cancer patients; cited from earlier work
[2] = solubility in water, ONC-201 dihydrochloride salt vs free base; type: physicochemical
Procedure: (§1) Dihydrochloride salts of compounds within the class of impiridones of which ONC-206 is a member, achieve unexpected technical effects. […] In addition, after two months at 25° C. and at 40° C., the percentage of impurities in the dihydrochloride salt is not detected and 3%, respectively; while for the free base the corresponding the percentage of impurities is 20% and 24%, respectively. This technical effect appears to extend to the class of impiridones.

[3] = stability: percentage of impurities after two months; type: physicochemical
Procedure: as §1

[4] = pharmacokinetics/toxicokinetics in dogs; conditions: dog, in vivo

SMILES: Cc1ccccc1CN1C(=O)C2=C(CCN(Cc3ccccc3)C2)N2CCN=C12 [ONC201, 7-benzyl-4-(2-methylbenzyl)-2,4,6,7,8,9-hexahydroimidazo[1,2-a]pyrido[3,4-e]pyrimidin-5(1H)-one]
- tumor response in patients [1]: induced durable tumor regressions
- RANO response (high grade gliomas): several patients achieved a RANO response
- PFS compared to historical control (endometrial cancer): several patients experienced prolonged PFS

SMILES: Cc1ccccc1CN1C(=O)C2=C(CCN(Cc3ccccc3)C2)N2CCN=C12 [ONC-201 dihydrochloride salt, 7-benzyl-4-(2-methylbenzyl)-2,4,6,7,8,9-hexahydroimidazo[1,2-a]pyrido[3,4-e]pyrimidin-5(1H)-one]
- solubility in water [2]: greater than 50 mg/mL
- percentage of impurities ([3]; after two months at 25° C.): not detected
- percentage of impurities ([3]; after two months at 40° C.): 3%

SMILES: Cc1ccccc1CN1C(=O)C2=C(CCN(Cc3ccccc3)C2)N2CCN=C12 [ONC-201 free base, 7-benzyl-4-(2-methylbenzyl)-2,4,6,7,8,9-hexahydroimidazo[1,2-a]pyrido[3,4-e]pyrimidin-5(1H)-one]
- solubility in water [2]: less than 1 mg/mL
- percentage of impurities ([3]; after two months at 25° C.): 20%
- percentage of impurities ([3]; after two months at 40° C.): 24%

SMILES: O=C1C2=C(CCN(Cc3ccccc3)C2)N2CCN=C2N1Cc1ccc(F)cc1F [ONC206, 7-benzyl-4-(2,4-difluorobenzyl)-2,4,6,7,8,9-hexahydroimidazo[1,2-a]pyrido[3,4-e]pyrimidin-5(1H)-one]
- half-life ([4]; beagle): 0.7 to 7.1 h
- CL/F ([4]; both, Beagle, po): 83.3 to 1680 mL/min/kg
- Vd/F ([4]; both, Beagle, po): 25.2 to 259 L/kg
- half-life ([4]; both, Beagle, po): 0.7 to 7.1 h
